For one experiment, the system named is T6-17 cells. The experiment in a line: Anchorage-independent growth (soft agar colony) screening, T6-17 cells. It is filed as cell-based, murine. Particulars: p<0.05, FIG. 1. As for the experimental part: (§1) Targeted molecules were screened in vitro for anti-tumor activity using a modified […] growth of transformed cell assay, as described in Fukazawa et al. (1995), Anal. Biochem., 10:83-90. Anchorage-independent growth capability is perhaps the best indicator of the malignant phenotype and is determined by efficiency of cells to form colonies in soft agar (Drebin, et al., 1985). All experiments were conducted in 6 cm dishes in triplicate. Agar bottom layers consisted of 3 ml 0.25% agarose/DMEM (Dulbecco's Modified Eagle Medium) supplemented with 10% FBS (Fetal Bovine Serum), 2 mM L-glutamine, and 100μ/ml Penicillin/1 μg/ml Streptomycin. About 1000-2000 cells T6-17/SK-BR-3 are layered on the top in 1 ml 0.18% agarose/DMEM, 10% FBS, 2 mM L-glutamine, and 100 u/ml Penicillin/i 1 μg/ml Streptomycin. Cultures were treated every 3 days with 0.5 ml of supplemented DMEM containing measured amounts of the Her2 inhibitors, or DMSO (dimethyl sulfoxide) alone. On the day before the colonies were counted, the samples were incubated with 1 ml of Hank's Balanced Salt Solution containing 1 mg/ml p-iodonitrotetrazolium violet (INT, Sigma) to stain colonies. The next day, colonies were counted using a 7× achromatic magnifying eyepiece (Bausch and Lomb). Triplicate cultures were counted on day 21 and will be verified by at least two different persons. […]

Another experiment relates to SK-BR-3 cells. Put plainly: Anchorage-independent growth (soft agar colony) screening, SK-BR-3 cells. Particulars: p<0.05, FIG. 1. The class given is cell-based, human. As for the experimental part: as §1

Regarding `CC(C)(C#Cc1cc(C(F)(F)F)cc(C(F)(F)F)c1)NC(=S)Nc1cccc(F)c1` [S22—04], the “cellular growth in culture (colonies in soft agar)” value with T6-17 cells and in the experiment with SK-BR-3 cells was “reduced cellular growth in culture” in each case.

(Values after patent publication US8993634B2, “Methods and use of compounds that bind to Her2/neu receptor complex” (The Trustees Of The University Of Pennsylvania, priority 2010, dated 2015).)
